Substitutions are numbered along the chain they refer to. “Also recorded” adds a separate entry of the source.
Experiments:
RNR-α [1] = biological target: T1, RNR-α (Homo sapiens, UniProt P23921); conditions: cited from earlier work
T1 sequence (P23921 1-792): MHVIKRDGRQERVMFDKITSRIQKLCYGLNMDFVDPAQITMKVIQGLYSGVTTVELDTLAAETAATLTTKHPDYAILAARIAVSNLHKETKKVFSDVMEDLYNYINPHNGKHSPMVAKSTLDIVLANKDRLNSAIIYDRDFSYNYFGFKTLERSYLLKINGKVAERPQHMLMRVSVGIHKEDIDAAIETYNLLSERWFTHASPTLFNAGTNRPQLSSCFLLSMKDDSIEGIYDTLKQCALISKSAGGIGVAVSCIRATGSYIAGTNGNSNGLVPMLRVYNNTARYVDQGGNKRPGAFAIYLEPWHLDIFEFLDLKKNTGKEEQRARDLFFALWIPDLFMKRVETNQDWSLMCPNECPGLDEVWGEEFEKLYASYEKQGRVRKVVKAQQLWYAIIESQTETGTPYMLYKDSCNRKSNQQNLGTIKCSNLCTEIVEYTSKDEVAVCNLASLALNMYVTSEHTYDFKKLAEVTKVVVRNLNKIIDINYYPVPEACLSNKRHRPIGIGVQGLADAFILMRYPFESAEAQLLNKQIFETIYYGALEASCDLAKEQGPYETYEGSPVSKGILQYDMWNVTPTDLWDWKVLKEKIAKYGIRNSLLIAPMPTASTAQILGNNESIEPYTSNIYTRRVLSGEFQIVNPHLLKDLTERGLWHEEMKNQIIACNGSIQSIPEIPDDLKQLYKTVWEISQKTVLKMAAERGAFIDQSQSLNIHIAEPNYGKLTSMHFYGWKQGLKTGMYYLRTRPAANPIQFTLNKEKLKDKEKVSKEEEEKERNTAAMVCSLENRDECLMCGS

[2] = biological target: T2, mutant (D57N)-mouse(m)RNR-α (Mus musculus, UniProt P07742, D57N); type: cell-based; conditions: 3 h treatment; 5, 50, 300 μM ClF, ClA, FlUMP; D57N-mRNR-α 3T3 cells
T2 sequence (P07742 1-792 D57N): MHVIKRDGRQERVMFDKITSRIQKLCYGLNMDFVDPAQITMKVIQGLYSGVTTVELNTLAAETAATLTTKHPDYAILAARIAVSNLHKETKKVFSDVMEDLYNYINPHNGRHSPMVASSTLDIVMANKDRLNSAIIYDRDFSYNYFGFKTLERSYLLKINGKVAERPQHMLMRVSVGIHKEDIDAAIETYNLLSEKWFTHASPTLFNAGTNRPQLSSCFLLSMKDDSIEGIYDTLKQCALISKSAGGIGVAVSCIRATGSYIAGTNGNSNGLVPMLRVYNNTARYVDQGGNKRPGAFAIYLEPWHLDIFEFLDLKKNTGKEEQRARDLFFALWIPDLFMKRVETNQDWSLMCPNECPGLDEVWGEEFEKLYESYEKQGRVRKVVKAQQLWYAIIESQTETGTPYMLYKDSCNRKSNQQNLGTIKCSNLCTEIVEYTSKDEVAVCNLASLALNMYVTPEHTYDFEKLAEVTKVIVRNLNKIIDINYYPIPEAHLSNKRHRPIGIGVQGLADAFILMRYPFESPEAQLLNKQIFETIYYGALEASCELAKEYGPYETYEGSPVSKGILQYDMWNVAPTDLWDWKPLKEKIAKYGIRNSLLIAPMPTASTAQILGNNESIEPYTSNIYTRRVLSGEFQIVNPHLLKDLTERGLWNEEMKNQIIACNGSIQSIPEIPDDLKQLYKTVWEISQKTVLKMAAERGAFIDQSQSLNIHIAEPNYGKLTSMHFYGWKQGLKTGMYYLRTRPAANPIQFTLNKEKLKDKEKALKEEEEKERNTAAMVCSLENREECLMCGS

[3] = test system: Flp-In 293 T-REx cells expressing D57N-α-Flag
[4] = test system: Flp-In 293 T-REx cells expressing RNR-α-Flag
RNR-α [5] = biological target: T1, RNR-α; assay: RNR-α-specific CDP/ATP-reductase activity inhibition assay; type: biochemical
E. coli RNR = conditions: cited from earlier work
D57N-human RNR-α mutant = biological target: T3, D57N-human RNR-α mutant (Homo sapiens, UniProt P23921, D57N); conditions: cited from earlier work
T3 sequence (P23921 1-792 D57N): T1 sequence (P23921 1-792) with D57N

## Nc1ccn([C@@H]2O[C@H](COP(=O)(O)OP(=O)(O)OP(=O)(O)O)[C@@H](O)C2(F)F)c(=O)n1 [F2CTP]
RNR-α [1]
  effect on RNR-α oligomeric state or holoenzyme activity: no effect

## Nc1nc(Cl)nc2c1ncn2[C@@H]1O[C@H](CO)[C@@H](O)[C@@H]1F [ClF, clofarabine]
[2]
  RNR reductase activity in D57N-α-expressing lines after drug treatment: resistance
[3]
  protection against cytotoxicity upon tet induction relative to noninduced: > 20 fold
[4]
  effect of RNR-α overexpression on cytotoxicity relative to noninduced cells: small effect on the EC50

## Nc1nc(Cl)nc2c1ncn2[C@@H]1O[C@H](COP(=O)(O)OP(=O)(O)O)[C@@H](O)[C@@H]1F [ClFDP, clofarabine diphosphate]
RNR-α [5]
  higher affinity than ClADP and FlUDP: 10–100 fold
E. coli RNR
  inhibition of E. coli RNR: failed to inhibit
D57N-human RNR-α mutant
  inhibition of D57N-α-specific RNR activity: can inhibit; also recorded: able to inhibit both wt- and D57N-α with similar potency
